Data as given in ChEMBL document CHEMBL1122781, “[(Aminomethyl)aryloxy]acetic acid esters. A new class of high-ceiling diuretics. 1. Effects of nitrogen and aromatic nuclear substitution” (J Med Chem, 1984).

tested on: Rattus norvegicus; experiment: Percent change of arterial blood pressure in spontaneously hypertensive rats at the dose of 100 mg/kg (p.o.) after 6 hr (control BP(mm Hg)=206); format: functional; conditions: route oral; call rule not given here

Row | Structure (SMILES) | Change
1 | Cl.NS(=O)(=O)c1cc(C(=O)O)c(NCc2ccco2)cc1Cl [FUROSEMIDE HYDROCHLORIDE] | -3%

tested on: Rattus norvegicus; experiment: Percent change of arterial blood pressure in spontaneously hypertensive rats at the dose of 300 mg/kg (p.o.) after […] (control BP(mm Hg)=214); format: functional; conditions: route oral

Row | Structure (SMILES) | Change
2 | Cl.NS(=O)(=O)c1cc(C(=O)O)c(NCc2ccco2)cc1Cl [FUROSEMIDE HYDROCHLORIDE] | -21%

tested on: Rattus norvegicus; experiment: Oral dose necessary to produce excretion of 2 mequiv of Na+/kg in rat urine in a 4-hr period after oral administration; inactive; format: ADME, organism-based; conditions: in vivo

Row | Structure (SMILES) | ED2
3 | CCOC(=O)COc1ccc(C(=O)c2ccc(O)c(C(=O)O)c2)c(Cl)c1Cl | Not Active
4 | CCOC(=O)COc1ccc(C(=O)c2cc(CN3CCS(=O)(=O)CC3)c(O)c(CN3CCS(=O)(=O)CC3)c2)c(Cl)c1Cl | Not Active
5 | CCOC(=O)COc1ccc(C(=O)c2ccc3c(c2)CNC(=O)O3)c(Cl)c1Cl | Not Active
6 | CN(C)Cc1cc(C(=O)c2ccc(OCC(=O)O)c(Cl)c2Cl)ccc1O | Not Active
7 | CCOC(=O)COc1ccc(C(=O)c2ccc(O)c(CN3CCS(=O)(=O)CC3)c2)c(Cl)c1Cl | Not Active
8 | CN(C)Cc1cc(C(=O)c2ccc(OCC(=O)O)c(Cl)c2Cl)cc(CN(C)C)c1O.Cl | Not Active
9 | Cl.NCc1cc(C(=O)c2ccc(OCC(=O)O)c(Cl)c2Cl)ccc1O | Not Active
10 | CCOC(=O)COc1ccc(C(=O)c2cc(CN3CCCCC3)c(O)c(CN3CCCCC3)c2)c(Cl)c1Cl.Cl | Not Active
11 | CCOC(=O)COc1ccc(C(=O)c2ccc(O)c(CN3CCCCC3)c2)c(Cl)c1Cl.Cl | Not Active
12 | CCOC(=O)COc1ccc(C(=O)c2ccc(O)c(CN3CCCC3)c2)c(Cl)c1Cl.Cl | Not Active
13 | CCOC(=O)COc1ccc(C(=O)c2ccc(O)c(CN3CCOCC3)c2)c(Cl)c1Cl.Cl | Not Active
14 | CCOC(=O)COc1ccc(C(=O)c2cc(CN3CCCC3)c(O)c(CN3CCCC3)c2)c(Cl)c1Cl.Cl | Not Active
15 | CCOC(=O)COc1ccc(C(=O)c2cc(CN(CC)CC)c(O)c(CN(CC)CC)c2)c(Cl)c1Cl.Cl | Not Active
16 | CCOC(=O)COc1ccc(C(=O)c2cc(CN3CCOCC3)c(O)c(CN3CCOCC3)c2)c(Cl)c1Cl.Cl | Not Active

The next lines start with the values.

Row | ED2 | Structure (SMILES)
17 | Not Active | CCOC(=O)COc1ccc(C(=O)c2ccc(O)c(CO)c2)c(Cl)c1Cl
18 | Not Active | CCOC(=O)COc1ccc(C(=O)c2ccc(O)c(CNC(C)=O)c2)c(Cl)c1Cl
19 | Not Active | CCOC(=O)COc1ccc(C(=O)c2ccc(O)c(C(N)=O)c2)c(Cl)c1Cl
20 | Not Active | CCOC(=O)COc1ccc(C(=O)c2ccc(O)c(C[N+](C)(C)C)c2)c(Cl)c1Cl.[Cl-]
21 | Not Active | CCOC(=O)COc1ccc(C(=O)c2ccc(CN)c(OC)c2)c(Cl)c1Cl.Cl
22 | Not Active | Br.CCOC(=O)COc1ccc(C(=O)c2ccc(OC)c(CN)c2)c(Cl)c1Cl
23 | Not Active | CCOC(=O)COc1ccc(C(=O)c2ccc(CN)cc2)c(Cl)c1Cl.Cl
24 | Not Active | CCOC(=O)COc1ccc(C(=O)c2cccc(CN)c2O)c(Cl)c1Cl.Cl
25 | Not Active | CCOC(=O)COc1ccc(C(=O)c2ccc(O)c(CN(CC)CC)c2)c(Cl)c1Cl.Cl
26 | Not Active | Br.CCOC(=O)COc1ccc(C(=O)c2ccc(CN)c(O)c2)c(Cl)c1Cl

tested on: Rattus norvegicus; experiment: Oral dose necessary to produce an excretion of 2 mequiv of Na+/kg in the rat urine in the 4-h period after peroral administration; format: ADME, organism-based; conditions: in vivo

Row | Structure (SMILES) | ED2
27 | CCOC(=O)COc1ccc(C(=O)c2ccc(O)c(CN)c2)cc1.Cl | 10 mg/kg
28 | CCOC(=O)COc1ccc(C(=O)c2ccc(O)c(CN)c2)c2ccccc12.Cl | 15 mg/kg
29 | CCOC(=O)COc1ccc(C(=O)c2ccc(O)c(CN)c2)cc1Cl.Cl | 5 mg/kg
30 | CCOC(=O)COc1ccc(C(=O)c2ccc(O)c(CN)c2)c(Cl)c1.Cl | 5 mg/kg
31 | CCOC(=O)COc1ccc(C(=O)c2ccc(O)c(CN)c2)c(C)c1C.Cl | 6 mg/kg

Next, values leading:

Row | ED2 | Structure (SMILES)
32 | 34 mg/kg | CCOC(=O)COc1ccc(C(=O)c2ccc(O)c(CN=C(N)N)c2)c(Cl)c1Cl
33 | 1 mg/kg | CCOC(=O)COc1ccc(C(=O)c2cc(I)c(O)c(CN)c2)c(Cl)c1Cl.Cl
34 | 1 mg/kg | CCOC(=O)COc1ccc(C(=O)c2cc(Cl)c(O)c(CN)c2)c(Cl)c1Cl.Cl
35 | 1 mg/kg | CCOC(=O)COc1ccc(C(=O)c2cc(C)c(O)c(CN)c2)c(Cl)c1Cl.Cl
36 | 12 mg/kg | CCOC(=O)COc1ccc(C(=O)c2cccc(CN)c2)c(Cl)c1Cl.Cl
37 | 16 mg/kg | CCOC(=O)COc1ccc(C(=O)c2ccc(O)c(CN(C)C)c2)c(Cl)c1Cl.Cl
38 | 50 mg/kg | CCOC(=O)COc1ccc(C(=O)c2ccc(Cl)c(CN)c2)c(Cl)c1Cl.Cl
39 | 3 mg/kg | CCOC(=O)COc1ccc(C(=O)c2cc(CN)ccc2O)c(Cl)c1Cl.Cl
40 | 1.2 mg/kg | CCOC(=O)COc1ccc(C(=O)c2ccc(O)c(C(C)N)c2)c(Cl)c1Cl.Cl (stereo not given)
41 | 11 mg/kg | CCOC(=O)COc1ccc(C(=O)c2cc(CN)c(O)c(CN)c2)c(Cl)c1Cl.Cl
42 | 4 mg/kg | CCOC(=O)COc1ccc(C(=O)c2ccc(O)c(CNO)c2)c(Cl)c1Cl.Cl
43 | 7 mg/kg | CCOC(=O)COc1ccc(C(=O)c2cc(CN(C)C)c(O)c(CN(C)C)c2)c(Cl)c1Cl.Cl

tested on: Rattus norvegicus; experiment: Percent change of arterial blood pressure in spontaneously hypertensive rats at the dose of 300 mg/kg (p.o.) after 6 hr (control BP(mm Hg)=214); format: functional; conditions: route oral

Row | Structure (SMILES) | Change
44 | Cl.NS(=O)(=O)c1cc(C(=O)O)c(NCc2ccco2)cc1Cl [FUROSEMIDE HYDROCHLORIDE] | -31%

tested on: Rattus norvegicus; experiment: Percent change of arterial blood pressure in spontaneously hypertensive rats at the dose of 30 mg/kg (p.o.) after 6 hr (control BP(mm Hg)=210); format: functional; conditions: route oral

Row | Structure (SMILES) | Change
45 | Cl.NS(=O)(=O)c1cc(C(=O)O)c(NCc2ccco2)cc1Cl [FUROSEMIDE HYDROCHLORIDE] | -6%

tested on: Rattus norvegicus; experiment: Percent change of arterial blood pressure in spontaneously hypertensive rats at the dose of 30 mg/kg (p.o.) after […] (control BP(mm Hg)=210); format: functional; conditions: route oral

Row | Structure (SMILES) | Change
46 | Cl.NS(=O)(=O)c1cc(C(=O)O)c(NCc2ccco2)cc1Cl [FUROSEMIDE HYDROCHLORIDE] | -10%

tested on: Rattus norvegicus; experiment: Percent change of arterial blood pressure in spontaneously hypertensive rats at the dose of 100 mg/kg (p.o.) after 24 hr (control BP(mm Hg)=206); format: functional; conditions: route oral

Row | Structure (SMILES) | Change
47 | Cl.NS(=O)(=O)c1cc(C(=O)O)c(NCc2ccco2)cc1Cl [FUROSEMIDE HYDROCHLORIDE] | -12%

tested on: Rattus norvegicus; experiment: Percent change of arterial blood pressure in spontaneously hypertensive rats at the dose of 100 mg/kg (p.o.) after […] (control BP(mm Hg)=206); format: functional; conditions: route oral

Row | Structure (SMILES) | Change
48 | Cl.NS(=O)(=O)c1cc(C(=O)O)c(NCc2ccco2)cc1Cl [FUROSEMIDE HYDROCHLORIDE] | -11%

tested on: Rattus norvegicus; experiment: Percent change of arterial blood pressure in spontaneously hypertensive rats at the dose of 300 mg/kg (p.o.) after 24 h (control BP(mm Hg)=214); format: functional; conditions: route oral

Row | Structure (SMILES) | Change
49 | Cl.NS(=O)(=O)c1cc(C(=O)O)c(NCc2ccco2)cc1Cl [FUROSEMIDE HYDROCHLORIDE] | -37%

tested on: Rattus norvegicus; experiment: Percent change of arterial blood pressure in spontaneously hypertensive rats at the dose of 30 mg/kg (p.o.) after 24 hr (control BP(mm Hg)=210); format: functional; conditions: route oral

Row | Structure (SMILES) | Change
50 | Cl.NS(=O)(=O)c1cc(C(=O)O)c(NCc2ccco2)cc1Cl [FUROSEMIDE HYDROCHLORIDE] | 1%
